Reference: patent publication US11123355B2, “Antiviral benzyl-amine phosphodiamide compounds” (Merck Sharp & Dohme Corp., priority 2016, dated 2021)
Like-named read-outs stand apart in the source and are kept apart here.

Experiments:
[1] = Pharmacokinetic Studies in Dogs - In Vivo Dog PK; parameters: species or system beagle dogs; settings: dog PBMCs at 24 h following a 10 mg/kg P.O. dose of the prodrug
Experimental: Pharmacokinetic Studies in Dogs—In Vivo Dog PK
Prodrugs were administered to beagle dogs through intravenous (IV) and oral (P.O.) administrations in a non-crossover manner. The IV dose was prepared in 20% hydroxypropyl β-cyclodextrin (HPBCD) or polyethylene glycol 200:ethanol:water (70:10:20 v/v/v). The dose was administered via cephalic or saphenous vein. The P.O. dose was prepared in 10% polysorbate 80 (Tween 80) and was administered via gavage.
Blood samples were serially collected following dose administration for up to 48 hr and plasma was separated by centrifugation. The concentrations of prodrugs in dog plasma were determined by a LC-MS/MS assay following a protein precipitation step and addition of an appropriate internal standard (labetalol, imipramine or diclofenac). Quantification was done by determining peak area-ratios of the prodrugs and tenofovir to the internal standard. Additional blood sample(s) was collected following dose administration for up to 24 hr. […] The concentrations of tenofovir and/or its phosphate conjugate(s) in PBMCs were determined by an LC-MS/MS assay following a protein precipitation step and addition of an appropriate internal standard (labetalol, imipramine or diclofenac). Quantification was done by determining peak area-ratios of tenofovir and/or its phosphate conjugate(s) to the internal standard.
Pharmacokinetic parameters were obtained using non-compartmental methods (Watson®). The area under the plasma concentration-time curve (AUC0-t) was calculated from the first time point (0 min) up to the last time point with measurable drug concentration using the linear trapezoidal or linear/log-linear trapezoidal rule. The IV plasma clearance was calculated by dividing the dose by AUC0-inf. The terminal half-life of elimination was determined by unweighted linear regression analysis of the log-transformed data. […] The volume of distribution at steady state (Vdss) was obtained from the product of plasma clearance and mean residence time (determined by dividing the area under the first moment curve by the area under the curve). […]

[2] = test system: HIV-1 (H9/IIB strain); test: Multiple Round HIV-1 Infection Assay (Viking Assay) in MT4-GFP cells; type: cell-based; settings: inhibition of reproductive ratio R0
Procedure, shortened: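 Inhibition of the reproductive ratio R0, derived from the rise in GFP-positive cells between ~48 h and ~72 h post-infection, was fitted by 4-parameter regression to give IC50. Cells infected at MOI ~0.01 were exposed to compound (typically 8.4 μM–0.42 nM final) in 10% or 50% normal human serum.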

[3] = Prodrug Stability Assay in Bio-Relevant Media (FaSSIF with Pancreatin); type: in vitro ADME; settings: 0.5 mg/mL Pancreatin in FaSSIF, 37° C.; HPLC peak area of prodrug at 5 h divided by that at 0 h
Experimental: Prodrug Stability Assay in Bio-Relevant Media
The following assay was employed to evaluate the stability of the prodrugs in simulated gastrointestinal tract conditions. Preparation of fasted state simulated intestinal fluid (FaSSIF) using Phares SIF Powder was carried out according to protocols from Phare Drug Delivery AG (Baselland, Switzerland). For sample preparation, 10 μL stock solutions (10 mM) of prodrug substance in DMSO was added to 990 μL of 0.5 mg/mL Pancreatin solution (Fisher CAS #8049-47-6) in FaSSIF. Two samples were prepared for each compound. If the sample was a clear solution, it was directly analyzed by HPLC. If the sample was not clear, the sample was diluted with 100% MeCN, maintained at 37° C. and observed 5 h later. If the sample was clear, HPLC analysis was directly performed. If the sample was still not clear, the sample was diluted with 100% ACN and assayed by HPLC. All the samples were vortexed for 3 min and observed before injection. For the diluted samples, the area is multiplied by a dilution factor when the data is analyzed. The analysis was carried out with an Agilent 1100 series HPLC with autosampler. The column was a Poroshell 120 EC-C18, 4.6×50 mm, 2.7 μm. The flow rate was 1.8 mL/min, and the injection volume was 5 or 10 μL. UV detection was in the range 210-400 nm. The mobile phase consisted of solvent A (water plus 10 mM tetrabutylammonium bromide) and solvent B (acetonitrile) with a gradient of: 90% solvent A at 0 min, changing to 95% solvent B over 6 min, maintaining for 1.5 min, then reverting to 90% solvent A over 1.6 min. The HPLC peak area of the prodrug at 5 h was divided by the HPLC peak area of the prodrug at 0 h, to generate the % claimed parent ratio, which is summarized in Table 2 for gastrointestinal (GI) Tract stability.

[4] = MT4-GFP cells infected with HIV-1, 10% normal human serum, read-out: Viking, IC50 (10% NHS)
[5] = MT4-GFP cells infected with HIV-1, 50% normal human serum, read-out: Viking, IC50 (50% NHS)

Compound | In Vivo Dog PK (μM): TFV-DP concentrations in dog PBMCs [1] [µM] | IC50 [2, 4] [nM] | IC50 [2, 5] [nM] | GI Tract stability (%) [3] [%]
CCCOC(=O)C(C)(C)N[P@@](=O)(CO[C@H](C)Cn1cnc2c(N)ncnc21)N[C@H](c1ccc(OC(F)(F)F)cc1)C(F)(F)F (single isomer, unassigned) [Example 27A] | 0.8 | 1.4 | 6.7 | 79.5
CCCOC(=O)C(C)(C)NP(=O)(CO[C@H](C)Cn1cnc2c(N)ncnc21)N[C@@H](C)c1ccc(Cl)cc1 (stereo partly drawn) [Example 13A, propyl 2-(((R)-((((R)-1-(6-amino-9H-purin-9-yl)propan-2-yl)oxy)methyl)(((S)-1-(4-chlorophenyl)ethyl)amino)phosphoryl)ami-no)-2-methylpropanoate and propyl 2-(((S)-((((R)-1-(6-amino-9H-purin-9-yl)propan-2-yl)oxy)methyl)(((S)-1-(4-chlorophenyl)ethyl)amino)phosphoryl)ami-no)-2-methylpropanoate] | 15.9 | 8.4 | 75 | 98.5
CCCOC(=O)C(C)(C)NP(=O)(CO[C@H](C)Cn1cnc2c(N)ncnc21)N[C@H](C)c1ccc(C#N)cc1 (stereo partly drawn) [Example 31B, propyl 2-(((R)-((((R)-1-(6-amino-9H-purin-9-yl)propan-2-yl)oxy)methyl)(((R)-1-(4-cyanophenyl)ethyl)amino)phosphoryl)ami-no)-2-methylpropanoate and propyl 2-(((S)-((((R)-1-(6-amino-9H-purin-9-yl)propan-2-yl)oxy)methyl)(((R)-1-(4-cyanophenyl)ethyl)amino)phosphoryl)ami-no)-2-methylpropanoate] |  | 8.8 | 110 | 90.6
CCCOC(=O)C(C)(C)N[P@](=O)(CO[C@H](C)Cn1cnc2c(N)ncnc21)N(C)[C@H](C)c1ccc(OC(F)(F)F)cc1 [Example 33B, propyl 2-(((R)-((((R)-1-(6-amino-9H-purin-9-yl)propan-2-yl)oxy)methyl)(methyl((R)-1-(4-(trifluoromethoxy)phenyl)ethyl)amino)phos-phoryl)amino)-2-methylpropanoate and propyl 2-(((S)-((((R)-1-(6-amino-9H-purin-9-yl)propan-2-yl)oxy)methyl)(methyl((R)-1-(4-(trifluoromethoxy)phenyl)ethyl)amino)phos-phoryl)amino)-2-methylpropanoate] |  | 2.2 | 7.1 | 97.2
CC(C)OC(=O)C(C)(C)NP(=O)(CO[C@H](C)Cn1cnc2c(N)ncnc21)N[C@H](C)c1ccc(OC(F)(F)F)cc1 (stereo partly drawn) [Example 34B, isopropyl 2-(((R)-((((R)-1-(6-amino-9H-purin-9-yl)propan-2-yl)oxy)methyl)(((R)-1-(4-(trifluoromethoxy)phenyl)ethyl)amino)phos-phoryl)amino)-2-methylpropanoate and isopropyl 2-(((S)-((((R)-1-(6-amino-9H-purin-9-yl)propan-2-yl)oxy)methyl)(((R)-1-(4-(trifluoromethoxy)phenyl)ethyl)amino)phos-phoryl)amino)-2-methylpropanoate] |  | 1.5 | 7.9 | 67.4
CC(C)OC(=O)C(C)(C)N[P@@](=O)(CO[C@H](C)Cn1cnc2c(N)ncnc21)N[C@H](C)c1ccc(Cl)cc1 [Example 35B, isopropyl 2-(((R)-((((R)-1-(6-amino-9H-purin-9-yl)propan-2-yl)oxy)methyl)(((R)-1-(4-chlorophenyl)ethyl)amino)phosphoryl)ami-no)-2-methylpropanoate and isopropyl 2-(((S)-((((R)-1-(6-amino-9H-purin-9-yl)propan-2-yl)oxy)methyl)(((R)-1-(4-chlorophenyl)ethyl)amino)phosphoryl)ami-no)-2-methylpropanoate] |  | 2.9 | 22 | 70.5
CC(C)OC(=O)C(C)(C)N[P@@](=O)(CO[C@H](C)Cn1cnc2c(N)ncnc21)NC1(c2ccc(Cl)cc2)CC1 [Example 37B, isopropyl 2-(((R)-((((R)-1-(6-amino-9H-purin-9-yl)propan-2-yl)oxy)methyl)((1-(4-chlorophenyl)cyclopropyl)amino)phos-phoryl)amino)-2-methylpropanoate and isopropyl 2-(((S)-((((R)-1-(6-amino-9H-purin-9-yl)propan-2-yl)oxy)methyl)((1-(4-chlorophenyl)cyclopropyl)amino)phos-phoryl)amino)-2-methylpropanoate] |  | 5.1 | 30 | 21.1
isopropyl 2-(((R)-((((R)-1-(6-amino-9H- purin-9-yl)propan-2-yl)oxy)methyl)((2-(4- chlorophenyl)propan-2- yl)amino)phosphoryl)amino)-2- methylpropanoate and isopropyl 2-(((S)-((((R)-1-(6-amino-9H- purin-9-yl)propan-2-yl)oxy)methyl)((2-(4- chlorophenyl)propan-2- yl)amino)phosphoroyl)amino)-2- methylpropanoate [Example 36A] |  | 3.2 | 37 | 20.2
propyl 2-(((R)-((((R)-1-(6-amino-9H-purin- 9-yl)propan-2-yl)oxy)methyl)((4- isopropylbenzyl)amino)phosphoryl)amino)- 2-methylpropanoate and propyl 2-(((S)-((((R)-1-(6-amino-9H-purin- 9-yl)propan-2-yl)oxy)methyl)((4- isopropylbenzyl)amino)phosphoryl)amino)- 2-methylpropanoate [Example 5A] | 7.7 | 3.1 | 17 | 96.3
propyl 2-(((R)-((((R)-1-(6-amino-9H-purin- 9-yl)propan-2-yl)oxy)methyl)(((R)-2,2,2- trifluoro-1-(p- tolyl)ethyl)amino)phosphoryl)amino)-2- methylpropanoate and propyl 2-(((S)-((((R)-1-(6-amino-9H-purin- 9-yl)propan-2-yl)oxy)methyl)(((R)-2,2,2- trifluoro-1-(p- tolyl)ethyl)amino)phosphoryl)amino)-2- methylpropanoate [Example 26A] |  | 4.7 | 45 | 75.3
